What was measured:
[1] = test system: Ocy454 cells; experiment: Gene expression in Ocy454 cells by RT-qPCR; format: cell-based, mouse; settings: 0.5 μM, 3.5 hours; FIG. 21
Procedure: In FIG. 21, Ocy454 cells (osteocyte cell line, also known at 6-9 cells) were cultured at 37° C. for 2 weeks to permit osteocyte differentiation. The cells were then treated with the indicated compound (0.5 μM) for 3.5 hours, and gene expression was analyzed by RT-qPCR. SOST expression was reduced by the indicated compounds. RANKL expression was increased by the indicated compounds. […] Therefore, these changes in gene expression may be due to on-target effects of the indicated compound.
For all experiments, a single cell subclone of Ocy454 cells (17, 18) was used. Cells were passages in alpha-MEM supplemented with 10% heat-inactivated fetal bovine serum and 1% antibiotics (penicillin/streptomycin, Fungizone) at 33° C. with 5% CO2. Cells were plated at 50,000 cells/ml and allowed to reach confluency at 33° C. (typically in 2-3 days). At this point, cells were transferred to 37° C. for subsequent analysis. For immunoblotting, cells were always analyzed after culture at 37° C. for 7 days. For gene expression analysis, cells were analyzed after culture at 37° C. for 14 days. Mycoplasma contamination was ruled out by PCR. Cells were routinely assayed for SOST expression at 37° C. and examined for osteocytic morphology.
Total RNA was extracted from cultured cells using RNeasy (Qiagen, Venlo, Netherlands) following the manufacturer's instructions. For long bone RNA isolation, mice were sacrificed and both femurs were rapidly dissected on ice. Soft tissue was removed and epiphyses cut. Bone marrow cells were then removed by serial flushing with ice-cold PBS. TRIzol (Life Technologies) was added and sampled were frozen at −80C and then homogenized. RNA was then extracted per the manufacturer's instructions, and further purified on RNeasy microcolumns prior to cDNA synthesis. RNA with A260/280 ratio <1.7 was not used for downstream analysis. For cDNA synthesis, 1 μg RNA was used in synthesis reactions according to the instructions of the manufacturer (Primescript RT, Takara). SYBR Green-based qPCR detection was performed using FastStart Universal SYBR Green (Roche, Basel, Switzerland) on a StepOne Plus (Applied Biosystems, Carlsbad, CA) thermocycler.

[2] = test system: C57B/6 mice; experiment: Acute YKL-05-093 administration: bone gene expression and sclerostin immunohistochemistry; format: in vivo, mouse; settings: 2 hours
Procedure: FIGS. 7A to 7I: Effects of YKL-05-093 administration on bone gene expression in vivo. (FIGS. 7A and 7B) 8 week old C57B/6 mice (n=4/group) were treated with the indicated dose of YKL-05-093 via intraperitoneal injection. 2 hours later, bone RNA was isolated and transcript abundance was measured by RT-qPCR. # indicates p<0.05 versus vehicle, and * indicates p<0.01 versus vehicle by Student's unpaired 2 tailed t-test. (FIG. 7C) Left: sclerostin immunohistochemistry was performed 2 hours after intraperitoneal injection with either vehicle or YKL-05-093 (20 μmol/kg). Right: quantification of sclerostin-positive cortical osteocytes, n=4 mice per treatment group, * indicated p<0.01 versus vehicle. (FIGS. 7D to 7I) Genes regulated by PTH and YKL-05-093 in vitro are also regulated by YKL-05-093 in vivo. Mice were treated with YKL-05-093 (20 μmol/kg) and bone RNA collected 2 hours later as in FIG. 7A. * indicates p<0.05 versus vehicle. In FIGS. 7A, 7B, and 7D to 7I, “umol” denotes μmol. In FIGS. 7D to 7I, each of the right bars corresponds to YKL-05-093.
All animals were housed in the Center for Comparative Medicine at the Massachusetts General Hospital, and all experiments were approved by the hospital's Subcommittee on Research Animal Care. HDAC5-null mice (70) and HDAC4 f/f mice (71) were generously provided by Dr. Eric Olson (University of Texas Southwestern Medical Center, Dallas, TX) and were backcrossed to C57B/6 mice for at least 6 generations. DMP1-Cre mice (27) were generously provided by Dr. Jian (Jerry) Feng (Texas A&M University, Baylor College of Dentistry, Dallas, TX). “DKO” HDAC4/5 mice were of the following genotype: HDAC4f/f; HDAC5−/−; DMP1-Cre. SIK2 f/f mice were as described (40), and were bred to DMP1-Cre animals to generate SIK2^OcyKO mice. ES cells carrying the targeted SOST allele Sost^tm1(KOMP)Vleg, in which the SOST coding sequence has been replaced by LacZ and floxed Neo cassette, were obtained from the Knockout Mouse Project (KOMP) Repository. Clone VG10069-BE8 was injected into blastocysts, and the resulting SOST+/− mice were crossed to HDAC5 mutant animals to generate compound heterozygous mice. In all instances, skeletal phenotypes were evaluated in 8 week-old sex-matched littermates. For acute effects of PTH on bone gene expression, animals were treated with PTH (1-34, 300 μg/kg, subcutaneous administration) and then sacrificed 90 minutes later. For acute effects of YKL-05-093 on bone gene expression, animals were treated with the indicated doses of compound (dissolved in PBS+25 mM HCl) or solvent via intraperitoneal injections, and sacrificed 2 hours later. […]

[3] = in vivo; cited from earlier work

Row | Compound | RANKL expression [1] | SOST expression [1] | bone expression of genes co-regulated by PTH and YKL-05-093 in vitro ([2]; 20 μmol/kg) | sclerostin protein levels by immunohistochemistry ([2]; 20 μmol/kg) | RANKL in osteocyte-enriched bone RNA ([2]; intraperitoneal) | SOST in osteocyte-enriched bone RNA ([2]; intraperitoneal) | tolerability [3]
1 | COc1ccc(N2C(=O)N(c3c(C)cccc3C)Cc3cnc(Nc4ccc(C5CCN(C)CC5)c(OC)c4)nc32)c(OC)c1 [YKL-05-093] | most active in these experiments at reducing SOST and increasing RANKL | most active in these experiments at reducing SOST | significant regulation of VDR, WNT4, NR4A2, NUAK1, PDGFA, and CD200 expression | reductions in sclerostin protein levels | RANKL up-regulation | dose-dependent SOST suppression | –
2 | COc1ccc(N2C(=O)N(c3c(C)cccc3Cl)Cc3cnc(Nc4ccc(C5CCN(C)CC5)cc4OC)nc32)nc1 [YKL-05-099] | – | – | – | – | – | – | well-tolerated

Source: patent publication US12121521B2, “Uses of salt-inducible kinase (SIK) inhibitors for treating osteoporosis” (The General Hospital Corporation, priority 2016, dated 2024)
